Experimental data reported in PubChem BioAssay (NCI).
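Each compound was tested at five concentrations against cells in 96-well plates for 48 hours. Here, GI50 denotes the concentration required for 50% inhibition of growth. TGI denotes the concentration required for complete inhibition of growth.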

Experiments:
Assay in all cases: growth of human tumour cells (NCI), 48 h
NCI-H460 lung = tested on: NCI-H460 lung
HS 578T breast = tested on: HS 578T breast
HL-60(TB) leukemia = tested on: HL-60(TB) leukemia
RXF 393 renal = tested on: RXF 393 renal
UACC-62 melanoma = tested on: UACC-62 melanoma
786-0 renal = tested on: 786-0 renal
KM12 colon = tested on: KM12 colon
NCI-H226 lung = tested on: NCI-H226 lung
MDA-MB-231 breast = tested on: MDA-MB-231 breast
NCI/ADR-RES ovarian = tested on: NCI/ADR-RES ovarian

SMILES	TGI (NCI-H460 lung) [µM]	TGI (HS 578T breast) [µM]	TGI (HL-60(TB) leukemia) [µM]	TGI (RXF 393 renal) [µM]	TGI (UACC-62 melanoma) [µM]	TGI (786-0 renal) [µM]	TGI (KM12 colon) [µM]	TGI (NCI-H226 lung) [µM]	TGI (MDA-MB-231 breast) [µM]	TGI (NCI/ADR-RES ovarian) [µM]	GI50 (NCI/ADR-RES ovarian) [µM]	GI50 (HL-60(TB) leukemia) [µM]	GI50 (RXF 393 renal) [µM]	GI50 (UACC-62 melanoma) [µM]	GI50 (KM12 colon) [µM]	GI50 (NCI-H226 lung) [µM]	GI50 (MDA-MB-231 breast) [µM]	GI50 (NCI-H460 lung) [µM]	GI50 (HS 578T breast) [µM]
O=C(Cc1ccccc1)Nn1c(-c2ccccc2)nc2ccccc2c1=O	> 100	> 100	> 100	> 100	> 100	> 100	> 100	> 100	> 100	–	–	–	–	–	–	–	–	–	–
CCOC(=O)C(NC(=O)c1ccccc1)(N1CCOCC1)C(F)(F)F (centres undefined)	–	> 100	> 100	> 100	> 100	> 100	> 100	> 100	> 100	> 100	–	–	–	–	–	–	–	–	–
CC[C@H]1C=CCC[C@@]2(C[C@@H]3CC[C@H]4[C@@H](C(=O)OCCCCCCCCCCCCCCCC(=O)N(CCCN)C[C@@H](O)CCN)[C@@]5(CCC[C@@H](C)O5)NC(=[N+]34)N2)O1	3.36	3.4	4.24	4.41	3.5	3.3	2.91	3.32	–	> 10	–	–	–	–	–	–	–	–	–
Nc1nc(N)c2cc(NCc3ccc(Cl)c(Cl)c3)ccc2n1	–	–	2.93	2.34	2.7	–	2.59	3.14	2.58	16.6	2.88	1.35	1.13	1.39	1.29	1.53	1.3	–	–
N#Cc1c(-c2ccccc2)c(N=Nc2ccc(Cl)cc2)c(=O)n2c1[nH]c1ccccc12	> 100	–	–	> 100	–	73.2	> 100	> 100	> 100	> 100	–	–	–	–	–	–	–	–	–
CN(C)C(=O)OC(Cn1cncn1)(Cn1cncn1)c1ccc(Cl)cc1Cl	> 100	> 100	> 100	> 100	–	> 100	> 100	> 100	> 100	> 100	–	–	–	–	–	–	–	–	–
COC(C)(C)C1(O)CCC(C)CC1=O (centres undefined)	> 100	> 100	> 100	> 100	> 100	> 100	> 100	–	–	–	–	–	–	–	–	–	–	–	–
C=CCO[C@]1(CC=C)C(=O)C(=O)OC1C1COC(C)(C)O1 (some centres undefined)	> 100	> 100	–	40.8	–	> 100	39.3	> 100	> 100	> 100	–	–	–	–	–	–	–	–	–
COC(=O)[C@H](Cc1c[nH]c2ccccc12)NC(=O)c1ccc(CNC(=O)/C=C/c2cccc(Oc3ccccc3)c2)cc1	> 100	> 100	–	81.6	> 100	> 100	> 100	> 100	> 100	> 100	–	–	–	–	–	–	–	–	–
C/C=C/C1OC(O)(C(C)C(O)[C@H](C)C2OC(=O)/C(OC)=C/C(C)=C/[C@@H](C)[C@@H](O)[C@@H](C)C(O)C(C)C/C(C)=C/C=C/C2OC)C[C@@H](OC2CC(O)C(OC(N)=O)C(C)O2)C1C (some centres undefined)	1.36	27.1	–	1.91	< 0.01	1.42	1.33	6.97	–	> 68.6	–	–	–	–	–	–	–	–	–
O=C(NCc1cccc2ccccc12)N/N=C\c1ccc(Cl)cc1	> 100	–	> 100	> 100	> 100	> 100	> 100	> 100	–	> 100	–	–	–	–	–	–	–	–	–
COC(=O)c1cnc(Cl)cn1	> 100	> 100	> 100	–	> 100	> 100	> 100	> 100	> 100	> 100	–	–	–	–	–	–	–	–	–
O=[N+]([O-])c1ccc(C=NCC2CCCN3CCCCC23)cc1 (centres undefined)	> 100	> 100	> 100	> 100	> 100	52.1	> 100	–	> 100	> 100	–	–	–	–	–	–	–	–	–
COc1ccc(N2C=Nn3c(nc4sc5c(c4c3=O)CCCC5)C2)cc1	> 100	9.6	–	57.1	> 100	20.7	> 100	> 100	40	> 100	–	–	–	–	–	–	–	–	–
Cc1noc(NC2=CC(=O)C(=O)c3ccccc32)c1C	> 100	> 100	52.2	–	22.9	> 100	32.7	> 100	> 100	21.4	–	–	–	–	–	–	–	–	–
COc1c(O)cc2c(c1O)C(=O)/C(=C/c1ccc(O)cc1)CO2	> 100	> 100	> 100	> 100	40	75.5	34.4	–	> 100	57	–	–	–	–	–	–	–	–	–
COc1ccc(C2C3COc4ccccc4C3=NN2c2ccccc2)cc1 (centres undefined)	> 100	> 100	–	> 100	> 100	> 100	> 100	> 100	> 100	> 100	–	–	–	–	–	–	–	–	–
Cc1ccc(/C(O)=C/c2nc3ccccc3s/c2=N/CS(=O)(=O)c2ccc(C)cc2)cc1	–	> 10	> 10	–	> 10	> 10	> 10	–	> 10	> 10	–	–	–	–	–	–	–	–	–
CC(=O)OCC1OC(Oc2cc(C)c(O)cc2C/C=C(\C)CC/C=C(\C)CC(=O)CC(C)C)C(O)C(OC(C)=O)C1OC(C)=O (centres undefined)	40	35.2	23.4	22.6	39.1	> 50	29.4	–	31.1	31.9	–	–	–	–	–	–	–	–	–
Cc1ccc2oc(=O)c(C(=O)Nc3nc(C45CC6CC(CC(C6)C4)C5)cs3)cc2c1	> 100	> 100	> 100	> 100	–	> 100	> 100	> 100	> 100	> 100	–	–	–	–	–	–	–	–	–
O=C(N/N=C(/COc1ccc([N+](=O)[O-])cc1)N=Cc1ccncc1)c1ccncc1	> 100	–	> 100	> 100	> 100	> 100	> 100	> 100	> 100	> 100	–	–	–	–	–	–	–	–	–
CCCCCCCCCCC1OC([C@@H](O)CC[C@H](O)C2CC[C@@H](CCCCCCCC(O)CC3=CC(C)OC3=O)O2)CCC1O (some centres undefined)	> 25	–	> 25	> 18.6	> 25	> 25	> 25	> 25	> 25	> 25	6.4	4.47	–	–	10.3	–	5.88	5.08	–
CN(C)CCCn1nc(N)c2nc3cc(Cl)ccc3nc21	> 100	> 100	–	> 100	45	> 100	> 100	> 100	> 100	> 100	–	–	–	–	–	–	–	–	–
CCOC(=O)CNc1nc(=O)c2c(=O)oc(Cl)cc2o1	36.2	45.1	–	–	39.9	21.9	55.3	> 100	59.1	50.3	–	–	–	–	–	–	–	–	–

SMILES	TGI (NCI-H460 lung) [µM]	TGI (HS 578T breast) [µM]	TGI (HL-60(TB) leukemia) [µM]	TGI (RXF 393 renal) [µM]	TGI (UACC-62 melanoma) [µM]	TGI (786-0 renal) [µM]	TGI (KM12 colon) [µM]	TGI (NCI-H226 lung) [µM]	TGI (MDA-MB-231 breast) [µM]	TGI (NCI/ADR-RES ovarian) [µM]	GI50 (NCI/ADR-RES ovarian) [µM]	GI50 (HL-60(TB) leukemia) [µM]	GI50 (RXF 393 renal) [µM]	GI50 (UACC-62 melanoma) [µM]	GI50 (KM12 colon) [µM]	GI50 (NCI-H226 lung) [µM]	GI50 (MDA-MB-231 breast) [µM]	GI50 (NCI-H460 lung) [µM]	GI50 (HS 578T breast) [µM]
CCOC(=O)CC1(c2cccc3ccccc23)OC(=O)c2ccccc21 (centres undefined)	> 100	–	54.1	70.1	> 100	–	> 100	> 100	–	–	–	–	–	–	–	–	–	–	–
O=CC12C3CCC1C2C(=O)C3 (centres undefined)	> 100	–	–	> 100	> 100	> 100	> 100	> 100	> 100	> 100	–	–	–	–	–	–	–	–	–
CC1(C)C2CC(=O)C1(C)C(OCc1ccccc1)C2 (centres undefined)	> 100	77	62.3	–	> 100	> 100	> 100	> 100	> 100	> 100	–	–	–	–	–	–	–	–	–
O=c1[nH]nc(Cc2ccccc2)n1CCO	> 100	> 100	–	–	> 100	> 100	> 100	> 100	> 100	> 100	–	–	–	–	–	–	–	–	–
C=C1C(=O)O[C@H]2[C@@H](O)[C@H](C)CCC[C@]3(C)O[C@H]3CC[C@@]3(C)O[C@@H]3C[C@@H]12	–	42	2.03	7.13	8.8	12.5	15.3	14.5	10.8	19	–	–	–	–	–	–	–	–	–
Cc1ccc2nc(-c3ccc(N4C(=O)C(Cl)C4c4ccc(Cl)cc4)cc3)sc2c1 (centres undefined)	46.2	66.8	> 100	–	31.3	56.9	> 100	36	33	39.3	–	–	–	–	–	–	–	–	–
CC(C)C1=CC23CCC4C(C)(C(=O)O)CCCC4(C)C2CC1C1C(=O)N(c2ccccc2)C(=O)C13 (centres undefined)	> 100	–	> 100	76.1	> 100	> 100	> 100	60.3	–	–	–	–	–	–	–	–	–	–	–
CC(C)C(/C=C/c1ccc(Cl)c(Cl)c1)=N\NC(=O)N/N=C(/C=C/c1ccc(Cl)c(Cl)c1)C(C)C	> 100	> 100	> 100	–	> 100	> 100	> 100	> 100	> 100	> 100	–	–	–	–	–	–	–	–	–
O=C1OC(=O)c2cc(S(=O)(=O)c3ccc4c(c3)C(=O)OC4=O)ccc21	> 100	> 100	–	> 100	> 100	> 100	> 100	> 100	> 100	> 100	–	–	–	–	–	–	–	–	–
O=c1c(=O)c2c(Br)sc(Br)c2c1=O	> 100	> 100	–	34.7	39.3	56.5	> 100	> 100	–	> 100	–	–	–	–	–	–	–	–	–
O=C1c2cc(Cl)ccc2NC(=NCCCl)C2CSCN12 (centres undefined)	> 100	> 100	–	> 100	> 100	> 100	> 100	> 100	> 100	> 100	–	–	–	–	–	–	–	–	–
CC(C)C(N)=O	> 5000	–	> 5000	> 5000	> 5000	> 5000	> 5000	> 5000	–	–	–	–	–	–	–	–	–	–	–
CCOP(=O)(OCC)C(N)c1ccc(Cl)cc1 (centres undefined)	> 100	> 100	> 100	–	> 100	> 100	> 100	–	> 100	> 100	–	–	–	–	–	–	–	–	–
Cc1csc(/N=C\c2c(O)c3ccccc3oc2=O)n1	–	94.5	–	–	> 100	> 100	> 100	> 100	34.7	> 100	–	–	–	–	–	–	–	–	–
NNC(=O)c1nnn(CCc2ccccc2)c1C(=O)NN	> 100	–	> 100	–	–	> 100	> 100	–	> 100	> 100	–	–	–	–	–	–	–	–	–
Cc1ccc(/C=N/Nc2ccc3ccccc3n2)s1	–	> 100	> 100	> 100	> 100	35.8	> 100	> 100	65.9	> 100	–	–	–	–	–	–	–	–	–
Nc1ccc(C(=O)c2cn(CCN3CCOCC3)c3ccccc23)c2ccccc12	> 100	> 100	44.8	–	> 100	> 100	> 100	–	–	65.3	–	–	–	–	–	–	–	–	–
c1csc(C[N+]23CN4CN(CN(C4)C2)C3)c1	49.2	–	33.2	–	47.5	58.8	> 100	> 100	–	–	–	–	–	–	–	–	–	–	–
COc1ccc(N2C(=O)C3c4[nH]c5ccc(F)cc5c4C4CCC(c5ccccc5)CC4C3C2=O)cc1 (centres undefined)	46.8	31.8	–	–	27.6	12.1	> 100	> 100	44	> 100	–	–	–	–	–	–	–	–	–
Cc1ccc(N(CC(=O)Nc2ccc(S(=O)(=O)N3CCC(N4CCCC4)CC3)cc2)S(=O)(=O)c2ccc(Cl)cc2)cc1	3.43	4.39	4.33	2.78	–	–	3.9	–	–	4.05	1.93	1.73	1.16	–	1.96	–	–	1.75	1.76
CC(=O)NC1=C[C@@H]([C@H]2COC(C)(C)O2)OC1=O	> 100	–	> 100	> 100	> 100	–	> 100	> 100	–	> 100	–	–	–	–	–	–	–	–	–
O=C1CCCCCCCCCCC1CN1CCCCC1 (centres undefined)	> 100	–	> 100	–	> 100	> 100	> 100	82.4	–	–	–	–	–	–	–	–	–	–	–
O=C(O)Cc1ccc2[nH]c(O)c(C3=Nc4ccccc4C3=O)c2c1	> 100	77.5	–	58.5	85.7	> 100	> 100	> 100	> 100	> 100	–	–	–	–	–	–	–	–	–
